Patent US20160100573A1, “QUATERNARY ORGANOSILICON SURFACTANTS, METHODS OF MAKING SAME AND APPLICATIONS CONTAINING THE SAME” (Momentive Performance Materials Inc., priority 2014, published 2016)

Key:
[1] = Aqueous surface tension by Wilhelmy Plate method (Kruss Tensiometer); format: physicochemical; conditions: ~22° C.; for CMC: 0.005M NaCl
Protocol: The aqueous surface tension of the various surfactants was determined by the Wilhelmy Plate method using a sand-blasted platinum blade as the sensor. Measurements were made using a Kruss surface Tensiometer. Surfactant solutions were prepared between 0.00001% and 1 wt % in 0.005M NaCl at ambient temperatures (˜22° C.).

[2] = Spreading of surfactant solutions on polystyrene surface (spread diameter after 30 seconds); format: physicochemical; parameters: unit not given here
Protocol: Spreading was determined using between 0.1% and 0.4% (actives) surfactant. Solutions were prepared in Milli-Pore water (deionized) where a 10 μl, drop was placed on a polystyrene surface (Petri-dish) and the spread diameter determined after 30 seconds.

[3] = Impact of cosurfactant on spreading of QC-1A on polystyrene surface; format: physicochemical; conditions: 0.2 wt % QC-1A, 0 wt % cosurfactant
Protocol: Spreading was determined using 0.2% (actives) total surfactant solutions, where a […] was placed on a polystyrene surface and the spread diameter determined after 30 seconds. The ratio of QC-1A to Cosurfactant was varied to determine the potential for synergistic or antagonistic effects from interaction between the two surfactants. The spread results (Actual) for each set were compared to a predicted value (weighted average) based on a linear relationship between QC-1A and the Cosurfactant.

[4] = Dispersibility / cloud point of surfactant in glyphosate-isopropyl amine 480 g/L formulation; format: physicochemical; conditions: for Cloud Point (50 g/L): surfactant at 5% in glyphosate 480 g/L formulation
Protocol: Aqueous glyphosate-isopropyl amine (480 g/L) formulations containing 5% of either Comparative-B or the composition of the present invention were prepared and evaluated for dispersion properties. The formulations were visually observed for clarity at 20-22° C., and if clear to hazy, the cloud point was also measured.
Cloud point was determined by placing 15 mL of formulation in a 20 dram vial containing a digital thermometer, and slowly heating the mixture on a magnetic stirrer/hot plate. The temperature at which the solution became opaque was recorded as the cloud point.

[5] = system: Barnyardgrass (Echinochloa crus-galli); experiment: Effect of adjuvant on uptake of 14C-glyphosate isopropylamine salt into Barnyardgrass; format: in vivo
Protocol: In one other embodiment herein the quaternary organosilicon surfactant composition of the present invention is such that the foliar uptake of various agricultural chemicals is faster for applications containing the quaternary organosilicon having the general formula (I) than that for equivalent applications containing a tallow amine ethoxylate.
Uptake of ^14C-glyphosate (herbicide) into Barnyardgrass (Echinochloa crus-galli) was determined at 2 and 24 hours after treatment (HAT) according to the method described by Gaskin et al. (Gaskin, R. E.; Stevens, P. J. G. 1992. Pestic. Sci. 38: 185-192.), to establish the impact of surfactant on the speed of uptake. Uptake was determined on adaxial surface of youngest fully expanded leaf; plant at 4 leaf stage, ca 10 cm tall.

[6] = 1.00E+00 weight % surfactant in 0.005M NaCl
[7] = 1.00E-01 weight % surfactant in 0.005M NaCl
[8] = 1.00E-02 weight % surfactant in 0.005M NaCl
[9] = 1.00E-03 weight % surfactant in 0.005M NaCl
[10] = 1.00E-04 weight % surfactant in 0.005M NaCl
[11] = 1.00E-05 weight % surfactant in 0.005M NaCl
[12] = 3.00E-03 weight % surfactant in 0.005M NaCl
[13] = 0.1 wt % surfactant (actives) in deionized water
[14] = 0.2 wt % surfactant (actives) in deionized water
[15] = 0.4 wt % surfactant (actives) in deionized water

| Compound | CMC [1] [wt %] | Surface Tension [1, 6] [mN/m] | Surface Tension [1, 7] [mN/m] | Surface Tension [1, 8] [mN/m] | Surface Tension [1, 9] [mN/m] | Surface Tension [1, 10] [mN/m] | Surface Tension [1, 11] [mN/m] | Surface Tension [1, 12] [mN/m] | Spread diameter [2, 13] | Spread diameter [2, 14] | Spread diameter [2, 15] | Cloud Point (50 g/L) [4] | also measured |
| --- | --- | --- | --- | --- | --- | --- | --- | --- | --- | --- | --- | --- | --- |
| COCCOCCOCCOCCOCCOCCOCCOCCOCCC[Si](C)(C)CC[Si](C)(C)C [Comparative-A, (CH3)3—Si—CH2CH2Si(CH3)2CH2CH2CH2O(CH2CH2O)8CH3] | 0.005 | 23.7 | 24.4 | 25.4 | 34.8 | 48.7 | 62.4 | 30.1 | 43 | 54 | – | – | – |
| C[N+](C)(CCCO)CC(O)COCCC[Si](C)(C)CC[Si](C)(C)C (stereo not drawn) [QC-1A] | – | – | – | – | – | – | – | – | – | – | – | – | Spread Diameter (Actual) [3]: 48 mm; Spread Diameter (Predicted) ([3]; weighted average): 48 mm |
| C[N+](C)(CCCO)CC(O)COCCC[Si](C)(C)CC[Si](C)(C)C (stereo not drawn) [QC-1] | – | – | – | – | – | – | – | – | 13 | 33 | 47 | >95 °C | Glyphosate uptake relative to TAE-2 ([5]; 2 HAT, even at a 4x lower use rate): significantly enhances glyphosate uptake; Uptake % of 14C-glyphosate ([5]; adjuvant 0.05 % w/v, 2 HAT): 40.1 d %; Uptake % of 14C-glyphosate ([5]; adjuvant 0.05 % w/v, 24 HAT): 57.6 be %; Uptake % of 14C-glyphosate ([5]; adjuvant 0.1 % w/v, 2 HAT): 34.8 e %; Uptake % of 14C-glyphosate ([5]; adjuvant 0.1 % w/v, 24 HAT): 56.2 c %; Uptake % of 14C-glyphosate ([5]; adjuvant 0.2 % w/v, 2 HAT): 36.2 de %; Uptake % of 14C-glyphosate ([5]; adjuvant 0.2 % w/v, 24 HAT): 61.6 b % |
| C[N+](C)(CC(O)CO)CC(O)COCCC[Si](C)(C)CC[Si](C)(C)C (stereo not drawn) [QC-2] | – | – | – | – | – | – | – | – | 10 | 23 | 40 | >95 °C | – |
| CCCC[N+](C)(C)CC(O)COCCC[Si](C)(C)CC[Si](C)(C)C (stereo not drawn) [QC-3] | – | – | – | – | – | – | – | – | 14 | 23 | 36 | Hazy at 20 °C | – |
| C[N+](C)(CCCO)CC(O)COCCC[Si](C)(O[Si](C)(C)C)O[Si](C)(C)C (stereo not drawn) [TSQ-1] | 0.009 | 19.9 | 20.2 | 22.3 | 38.3 | 55.6 | 66.7 | 28.7 | 15 | 30 | – | – | – |
| (CH3)3—Si—O—Si(CH3)(Z)—OS i(CH3)3 Where Z=—CH2CH2CH2O(CH2CH2O)8CH3 [Comparative-B] | 0.01 | 20.6 | 20.7 | 21.5 | 34.2 | 45.1 | 52.9 | 27.0 | – | – | – | Cloudy at 20° C.^a. | Dispersibility in the glyphosate formulation (visual) ([4]; 5% surfactant in glyphosate-isopropyl amine 480 g/L, 20-22° C.): insoluble in the glyphosate formulation |
